# Source: patent publication US5268389A, “Thiocarboxylate ester compounds compositions containing the same” (priority 1990, dated 1993)
# Experiments:
# various fungi = conditions: variety of crops; cited from earlier work
# HIV = assay: Reduction of HIV cytopathic effect, MT2V (MT2 cells, free virus); type: cell-based; conditions: Human immunodeficiency virus 1, read-out: Activity of Anti-HIV Compounds (EC50), MT2V
# Method: The compounds of Examples were tested for anti-AIDS activity by subjecting them to standard National Cancer Institute ("NCI") in vitro screening procedures. In carrying out each test, two blanks were run. In the first blank, HIV and a culture of a standard human cell line were incubated together to measure the infectivity of the virus. The viability of the cells was measured after holding for six or seven days. In an "effective" test, most cells were infected before the holding period was complete.
# In the second blank, the cell line culture and the compound being tested (but not virus) were incubated together to measure the toxicity of the drug to the cellline. The viability of the cells was measured as a function of concentration of the compound, after holding for seven days. […]
# Finally, the protective effects of the test compounds were measured. Each cell culture and test compound were incubated with the virus and the viability of the cells was measured as a function of compound concentration after holding for six or seven days. […] At this point, cell viability increases steadily toward 100% unless the toxic effect of the compound (as measured in the second blank) takes effect. […] The therapeutic index TI50 is calculated as IC50/EC50.
# Values of test compound concentrations required for between 20 and 50% reduction of the viral cytopathic effect can also be determined. […]
# [1] = design: species or system mice; conditions: mouse, in vivo, iv, 10 mg/kg/day
# Source text: Initial studies on the toxicity of the compound of Example 1 were made on mice.
# for 5 days Per Day Test Toxicity
# host DNA synthesis = conditions: administration of AZT; cited from earlier work
smiles,measurement,setting,value
"CC1=C(C(=O)Nc2ccccc2)SCCO1 [carboxin, 5,6-dihydro-2-methyl-N-phenyl-1,4-oxathiin-3-carboxamide]",control of fungi by seed treatment,various fungi,providing control by seed treatment of various fungi
"CC1=C(C(=O)Nc2ccc(Cl)c(C(=O)OC(C)C)c2)SCCO1 [Compound 1, 1-Methylethyl 2-chloro-5-[[(5,6-dihydro-2-methyl-1,4-oxathiin-3-yl)carbonyl]amino]benzoate]",EC50,HIV,2600 nM
same,"Result, Toxicity",[1],No visible sign
"Cc1cn([C@H]2C[C@H](N=[N+]=[N-])[C@@H](CO)O2)c(=O)[nH]c1=O [AZT, Azidothymidine]",side effects,host DNA synthesis,"severe side effects, e.g., anemia, granulocytopenia, and thrombocytopenia"
